Key:
Test in all cases: Kinase selectivity, DiscoverX scanMAX Kinase assay panel (% control)
Assay type in all cases: binding
[1] = molecular target: T1, kinases of the scanMAX Kinase assay panel (Homo sapiens, UniProt Q8NFD2); details: ANKK1; 1 uM
T1 construct: purchased DiscoverX Co. (contract measurement) scanMAX Kinase assay panel
T1 sequence (Q8NFD2 1-765): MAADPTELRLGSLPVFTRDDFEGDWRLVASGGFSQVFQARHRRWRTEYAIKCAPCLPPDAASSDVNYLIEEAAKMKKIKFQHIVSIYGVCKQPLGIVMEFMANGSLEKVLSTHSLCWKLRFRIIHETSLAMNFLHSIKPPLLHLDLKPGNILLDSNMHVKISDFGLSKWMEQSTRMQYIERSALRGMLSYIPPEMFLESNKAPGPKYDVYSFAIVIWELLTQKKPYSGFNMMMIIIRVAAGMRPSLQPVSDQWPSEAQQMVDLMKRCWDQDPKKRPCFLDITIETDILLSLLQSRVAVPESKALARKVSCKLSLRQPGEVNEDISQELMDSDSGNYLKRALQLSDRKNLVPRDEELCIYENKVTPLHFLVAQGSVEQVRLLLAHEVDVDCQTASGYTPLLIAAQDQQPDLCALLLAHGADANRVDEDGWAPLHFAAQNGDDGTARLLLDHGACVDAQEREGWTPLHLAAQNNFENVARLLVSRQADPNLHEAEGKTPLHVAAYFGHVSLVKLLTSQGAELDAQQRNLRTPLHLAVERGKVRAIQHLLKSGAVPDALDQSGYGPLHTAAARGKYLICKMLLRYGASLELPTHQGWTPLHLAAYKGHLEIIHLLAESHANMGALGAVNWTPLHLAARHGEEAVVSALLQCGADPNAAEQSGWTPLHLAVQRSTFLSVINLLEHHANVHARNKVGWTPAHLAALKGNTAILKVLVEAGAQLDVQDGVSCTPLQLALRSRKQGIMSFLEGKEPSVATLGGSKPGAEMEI
Summary of the method: (§1)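 A 1 uM DMSO solution of compound was applied across the panel kinases, and results were expressed as % control relative to DMSO (100%) and a positive control (0%).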

[2] = molecular target: T2, kinases of the scanMAX Kinase assay panel (Homo sapiens, UniProt Q16832); details: DDR2; 1 uM
T2 construct: purchased DiscoverX Co. (contract measurement) scanMAX Kinase assay panel
T2 sequence (Q16832 22-855): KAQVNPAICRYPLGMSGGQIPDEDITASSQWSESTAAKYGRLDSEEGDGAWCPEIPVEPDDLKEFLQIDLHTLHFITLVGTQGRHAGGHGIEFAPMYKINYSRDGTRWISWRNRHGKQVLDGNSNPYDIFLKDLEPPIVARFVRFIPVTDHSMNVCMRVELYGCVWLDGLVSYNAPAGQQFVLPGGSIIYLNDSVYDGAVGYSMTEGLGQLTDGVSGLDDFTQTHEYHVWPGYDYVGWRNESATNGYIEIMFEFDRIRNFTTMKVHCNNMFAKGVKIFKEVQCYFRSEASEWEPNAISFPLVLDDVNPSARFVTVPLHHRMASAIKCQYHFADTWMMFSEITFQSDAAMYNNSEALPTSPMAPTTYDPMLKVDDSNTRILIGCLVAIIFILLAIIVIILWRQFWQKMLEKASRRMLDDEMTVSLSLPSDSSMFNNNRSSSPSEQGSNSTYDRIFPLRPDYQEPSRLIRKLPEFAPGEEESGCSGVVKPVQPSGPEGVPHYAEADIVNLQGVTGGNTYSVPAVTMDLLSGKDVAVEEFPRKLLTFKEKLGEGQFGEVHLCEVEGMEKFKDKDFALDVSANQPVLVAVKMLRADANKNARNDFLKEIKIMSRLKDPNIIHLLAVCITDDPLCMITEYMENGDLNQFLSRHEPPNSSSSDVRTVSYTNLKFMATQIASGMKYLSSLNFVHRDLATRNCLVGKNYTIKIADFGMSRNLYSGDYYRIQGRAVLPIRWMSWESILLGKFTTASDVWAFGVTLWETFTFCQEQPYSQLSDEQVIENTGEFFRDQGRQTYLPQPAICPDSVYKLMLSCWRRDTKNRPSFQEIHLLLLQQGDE
Summary of the method: as §1

[3] = molecular target: T3, kinases of the scanMAX Kinase assay panel (Homo sapiens, UniProt P42336, H1047Y); details: PIK3CA(H1047Y); 1 uM
T3 construct: purchased DiscoverX Co. (contract measurement) scanMAX Kinase assay panel
Summary of the method: as §1

[4] = molecular target: T4, kinases of the scanMAX Kinase assay panel (Homo sapiens, UniProt Q14164); details: IKK-epsilon; 1 uM
T4 construct: purchased DiscoverX Co. (contract measurement) scanMAX Kinase assay panel
T4 sequence (Q14164 1-716): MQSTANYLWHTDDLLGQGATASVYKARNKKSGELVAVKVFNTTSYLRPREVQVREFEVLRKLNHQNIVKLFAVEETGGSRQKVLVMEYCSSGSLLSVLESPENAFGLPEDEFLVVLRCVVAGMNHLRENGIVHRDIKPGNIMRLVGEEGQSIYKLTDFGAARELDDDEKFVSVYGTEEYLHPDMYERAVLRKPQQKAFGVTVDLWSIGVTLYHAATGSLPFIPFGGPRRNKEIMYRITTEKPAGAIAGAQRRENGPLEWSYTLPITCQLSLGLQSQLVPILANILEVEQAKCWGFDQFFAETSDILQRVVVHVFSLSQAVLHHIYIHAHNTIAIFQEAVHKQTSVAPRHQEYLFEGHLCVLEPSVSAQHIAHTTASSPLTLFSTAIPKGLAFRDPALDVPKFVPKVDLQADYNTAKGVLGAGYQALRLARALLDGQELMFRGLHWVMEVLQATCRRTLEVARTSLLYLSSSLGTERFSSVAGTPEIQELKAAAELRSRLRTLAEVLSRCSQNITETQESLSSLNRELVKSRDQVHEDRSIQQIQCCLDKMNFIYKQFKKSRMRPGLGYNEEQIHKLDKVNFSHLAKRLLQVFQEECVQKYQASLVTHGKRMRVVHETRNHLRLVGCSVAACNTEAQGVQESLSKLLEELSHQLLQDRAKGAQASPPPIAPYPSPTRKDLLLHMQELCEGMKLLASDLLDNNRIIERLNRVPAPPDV
Summary of the method: as §1

[5] = molecular target: T5, kinases of the scanMAX Kinase assay panel (Homo sapiens, UniProt Q16288); details: kinase TRKC; 1 uM in DMSO
T5 construct: purchased DiscoverX Co. (contract measurement) scanMAX Kinase assay panel
Summary of the method: as §1

T5 sequence (Q16288 32-839): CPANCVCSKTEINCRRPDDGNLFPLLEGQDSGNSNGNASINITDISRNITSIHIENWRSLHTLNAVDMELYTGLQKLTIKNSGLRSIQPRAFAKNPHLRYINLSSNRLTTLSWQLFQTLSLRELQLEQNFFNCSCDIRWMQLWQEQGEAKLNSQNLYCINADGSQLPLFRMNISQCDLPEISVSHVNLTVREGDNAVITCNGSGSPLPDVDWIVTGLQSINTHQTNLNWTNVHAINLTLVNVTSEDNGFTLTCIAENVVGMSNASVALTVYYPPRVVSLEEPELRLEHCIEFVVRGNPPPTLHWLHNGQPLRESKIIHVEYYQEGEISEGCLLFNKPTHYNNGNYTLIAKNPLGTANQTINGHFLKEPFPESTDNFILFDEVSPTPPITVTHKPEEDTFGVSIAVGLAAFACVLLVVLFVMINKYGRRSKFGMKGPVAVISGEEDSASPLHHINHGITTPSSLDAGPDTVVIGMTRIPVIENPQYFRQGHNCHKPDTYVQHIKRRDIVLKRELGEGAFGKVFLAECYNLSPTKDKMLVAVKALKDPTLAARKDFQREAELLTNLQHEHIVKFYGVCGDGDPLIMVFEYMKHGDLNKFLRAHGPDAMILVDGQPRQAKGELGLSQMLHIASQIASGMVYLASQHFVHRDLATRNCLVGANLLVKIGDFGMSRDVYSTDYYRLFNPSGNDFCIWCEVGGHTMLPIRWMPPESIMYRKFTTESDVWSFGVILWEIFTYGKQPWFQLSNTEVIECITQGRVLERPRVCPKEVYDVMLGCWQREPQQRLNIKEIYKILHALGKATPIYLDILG
T3 sequence (P42336 whole entry H1047Y): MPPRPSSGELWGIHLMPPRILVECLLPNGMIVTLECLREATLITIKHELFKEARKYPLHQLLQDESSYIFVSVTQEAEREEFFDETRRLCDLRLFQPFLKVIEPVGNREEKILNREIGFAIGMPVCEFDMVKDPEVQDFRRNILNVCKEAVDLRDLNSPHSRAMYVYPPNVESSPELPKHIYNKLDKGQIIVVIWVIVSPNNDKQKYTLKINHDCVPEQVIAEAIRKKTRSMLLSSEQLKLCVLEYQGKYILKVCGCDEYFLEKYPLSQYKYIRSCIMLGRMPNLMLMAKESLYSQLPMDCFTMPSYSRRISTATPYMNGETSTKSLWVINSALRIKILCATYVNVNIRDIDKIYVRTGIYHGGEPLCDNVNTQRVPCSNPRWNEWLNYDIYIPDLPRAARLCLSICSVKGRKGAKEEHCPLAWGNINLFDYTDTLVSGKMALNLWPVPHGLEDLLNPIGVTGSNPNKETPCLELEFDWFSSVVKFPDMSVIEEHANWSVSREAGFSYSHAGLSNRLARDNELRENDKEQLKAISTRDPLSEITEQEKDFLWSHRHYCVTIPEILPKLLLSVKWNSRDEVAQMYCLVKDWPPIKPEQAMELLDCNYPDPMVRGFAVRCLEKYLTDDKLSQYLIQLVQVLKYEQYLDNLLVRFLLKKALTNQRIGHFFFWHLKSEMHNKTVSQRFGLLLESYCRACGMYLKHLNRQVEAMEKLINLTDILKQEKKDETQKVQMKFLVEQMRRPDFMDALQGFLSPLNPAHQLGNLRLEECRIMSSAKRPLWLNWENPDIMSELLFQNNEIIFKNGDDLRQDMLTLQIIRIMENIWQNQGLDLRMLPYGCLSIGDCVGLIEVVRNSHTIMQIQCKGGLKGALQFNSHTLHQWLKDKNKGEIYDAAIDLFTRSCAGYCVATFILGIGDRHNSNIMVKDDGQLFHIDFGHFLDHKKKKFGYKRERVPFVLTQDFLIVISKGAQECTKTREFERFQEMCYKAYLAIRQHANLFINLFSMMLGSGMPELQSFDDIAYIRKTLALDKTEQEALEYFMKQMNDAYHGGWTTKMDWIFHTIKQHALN

**Q.** `CNc1nc(Nc2ccc(C(=O)N3CCOCC3)cc2OC)nc2[nH]cc(C#N)c12` [Example 1, 2-((2-methoxy-4-(morpholine-4-carbonyl)phenyl)amino)-4-(methylamino)-7H-pyrrolo[2,3-d]pyrimidine-5-carbonitrile] was tested. Which remaining binding at 1 µM [1] did it give?
**A.** Its remaining binding at 1 µM is 82%.

**Q.** And the remaining binding at 1 µM [2]?
**A.** The remaining binding at 1 µM was 96%.

**Q.** And the remaining binding at 1 µM [3]?
**A.** The remaining binding at 1 µM was 100%.

**Q.** And the remaining binding at 1 µM [4]?
**A.** Its remaining binding at 1 µM is 98%.

**Q.** What about the remaining binding at 1 µM [5] of the same molecule?
**A.** Its remaining binding at 1 µM is 60%.

**Q.** What does the source list for `CC1(Nc2nc(Nc3cnn([C@H]4CCN(C5COC5)C[C@@H]4F)c3Cl)nc3[nH]cc(C#N)c23)CC1` [Example 52, 2-((5-chloro-1-((3S,4S)-3-fluoro-1-(oxetane-3-yl)piperidine-4-yl)-1H-pyrazole-4-yl)amino)((1-methylcyclopropyl)amino)-7H-pyrrolo[2,3-d]pyrimidine-5-carbonitrile]?
**A.** remaining binding at 1 µM [1]: 15%; remaining binding at 1 µM [2]: 20%; remaining binding at 1 µM [3]: 62%; remaining binding at 1 µM [4]: 9.9%; remaining binding at 1 µM [5]: 30%

**Q.** `CCNc1nc(Nc2ccc(C(=O)N3CCC(N4CCOCC4)CC3)cc2OC)nc2[nH]cc(C(F)(F)F)c12` [Example 104, (4-((4-(ethylamino)-5-(trifluoromethyl)-7H-pyrrolo[2,3-d]pyrimidine-2-yl)amino)-3-methoxyphenyl)(4-morpholinopiperidine-1-yl)methanone] was tested. Which remaining binding at 1 µM [1] did it give?
**A.** The remaining binding at 1 µM was 95%.

**Q.** And the remaining binding at 1 µM [2]?
**A.** The remaining binding at 1 µM was 100%.

**Q.** And the remaining binding at 1 µM [3]?
**A.** The remaining binding at 1 µM was 96%.

**Q.** What about the remaining binding at 1 µM [4] of the same molecule?
**A.** The remaining binding at 1 µM was 95%.

**Q.** And the remaining binding at 1 µM [5]?
**A.** The remaining binding at 1 µM was 100%.
